Source: patent US11059815B2, “Synthesis of small molecule histone deacetylase 6 degraders, compounds formed thereby, and pharmaceutical compositions containing them” (Wisconsin Alumni Research Foundation, priority 2018, dated 2021)

Assays:
acetylated histone H3 = assay: Western blot of acetylated histone H3 in MM1S cells; assay type: cell-based, human
Text: (§1) FIGS. 12A, 12B, and 12C are a series of western blots showing that degrader 12d selectively promotes HDAC6 degradation in MM1S cells.
To further examine the selectivity of the new generation of HDAC6 degraders, compound 12d was compared to SAHA, Next-A, degrader 1 and pan-inhibitor 2 for change of acetylated a-tubulin and acetylated histone H3.
When the cells reached 90% confluence, they were harvested and plated 1×10^6 cells per well in 6-well plate. After overnight seeding, the cells were treated with a solution of compounds or vehicle in culture medium. The culture medium was removed after treatment and then washed twice with cold PBS. To obtain whole cell lysate, all cells were treated with RIPA lysis buffer (25 mM Tris, pH 7-8, 150 mM NaCl, 0.1% SDS, 0.5% sodium deoxycholate, 1% Triton X-100, protease inhibitor cocktail (Roche, 1 tablet per 10 mL) and 1 mM PMSF) on ice for 10 minutes. Supernatant was collected after spinning down at 16,000 g at 4° C. for 15 minutes. Protein concentration was measured by using the Pierce BCA protein assay (Thermo Fisher Scientific). […] The Immunoblot was generated by ChemiDoc MP Imaging Systems (Bio-Rad) and analyzed by Image J software (only available for download online at https://imagej.net/Downloads). […]

Caspase-3 and PARP = assay: Cleavage of Caspase-3 and PARP in MM1S; assay type: cell-based, human; details: 48 h treatment, data not shown
Method: Single treatment or co-treatment was performed as combined therapy (1 μM) for 72 hours in MM1S cells. […] However, the single treatment of 12d improved about 19% (P=0.0017) and 11% (P=0.0213) growth inhibition comparing with the combination sets of 13+15 (1:1) and pomalidomide+Next-A (1:1), respectively. To further confirm the observed enhancement, the anti-proliferation in response to 12d was studied from 0.3 nM to 3 μM. This single treatment was compared with dual treatment of 13 and 15 to rule out the potential complication derived from cell permeability issue. Degrader 12d lowered the bottom line (minimal proliferation) of curve over 20% although its IC50 was […] consequentially.
(§2) When the cells reached 90% confluence, they were harvested and plated 1×10^6 cells per well in 6-well plate. After overnight seeding, the cells were treated with a solution of compounds or vehicle in culture medium. The culture medium was removed after treatment and then washed twice with cold PBS. […] Protein concentration was measured by using the Pierce BCA protein assay (Thermo Fisher Scientific). […] The Immunoblot was generated by ChemiDoc MP Imaging Systems (Bio-Rad) and analyzed by Image J software (only available for download online at https://imagej.net/Downloads). […]

HDAC1 = target: T1, HDAC1 (Homo sapiens, UniProt Q13547); assay: Western blot of HDAC1 in MM1S cells (time course); assay type: cell-based; details: 100 nM
T1 construct: endogenous in cells; host or cells: MM1S
Method: as §1
To probe the efficiency of 12d, MM1S was treated with 100 nM 12d and the change of HDAC6 protein level was monitored by time. The HDAC6 degradation started around 1 h and reached maximal degradation effect at 4 h. The degradation of IKZFs was only observed after 4 h. Meanwhile, HDAC1 was not affected and the acetylation of tubulin was accumulated by time. To study the re-synthesis rate of HDAC6 after degradation, “wash-out” experiments were performed (data not shown). Cells were treated with 100 nM 12d for 6 h and then washed with PBS to remove remaining degraders. HDAC6 expression was monitored for 48 h. […] Selected degraders were also tested in other cell lines and they are effective among all tested cancer cell lines.
as §2, with “medium.” for “medium. The culture medium was removed after treatment and then washed twice with cold PBS.”

HDAC6 = target: T2, HDAC6 (Homo sapiens, UniProt Q9UBN7); assay: In-cell ELISA of HDAC6 protein level in MM1S cells; assay type: cell-based; details: 1 nM to 3 μM, 6 h
T2 construct: an in-cell ELISA was used to analyze the HDAC6 content in MM1S cells; endogenous in cells; host or cells: MM1S (ATCC CRL-2974)
T2 sequence (Q9UBN7 1-1215): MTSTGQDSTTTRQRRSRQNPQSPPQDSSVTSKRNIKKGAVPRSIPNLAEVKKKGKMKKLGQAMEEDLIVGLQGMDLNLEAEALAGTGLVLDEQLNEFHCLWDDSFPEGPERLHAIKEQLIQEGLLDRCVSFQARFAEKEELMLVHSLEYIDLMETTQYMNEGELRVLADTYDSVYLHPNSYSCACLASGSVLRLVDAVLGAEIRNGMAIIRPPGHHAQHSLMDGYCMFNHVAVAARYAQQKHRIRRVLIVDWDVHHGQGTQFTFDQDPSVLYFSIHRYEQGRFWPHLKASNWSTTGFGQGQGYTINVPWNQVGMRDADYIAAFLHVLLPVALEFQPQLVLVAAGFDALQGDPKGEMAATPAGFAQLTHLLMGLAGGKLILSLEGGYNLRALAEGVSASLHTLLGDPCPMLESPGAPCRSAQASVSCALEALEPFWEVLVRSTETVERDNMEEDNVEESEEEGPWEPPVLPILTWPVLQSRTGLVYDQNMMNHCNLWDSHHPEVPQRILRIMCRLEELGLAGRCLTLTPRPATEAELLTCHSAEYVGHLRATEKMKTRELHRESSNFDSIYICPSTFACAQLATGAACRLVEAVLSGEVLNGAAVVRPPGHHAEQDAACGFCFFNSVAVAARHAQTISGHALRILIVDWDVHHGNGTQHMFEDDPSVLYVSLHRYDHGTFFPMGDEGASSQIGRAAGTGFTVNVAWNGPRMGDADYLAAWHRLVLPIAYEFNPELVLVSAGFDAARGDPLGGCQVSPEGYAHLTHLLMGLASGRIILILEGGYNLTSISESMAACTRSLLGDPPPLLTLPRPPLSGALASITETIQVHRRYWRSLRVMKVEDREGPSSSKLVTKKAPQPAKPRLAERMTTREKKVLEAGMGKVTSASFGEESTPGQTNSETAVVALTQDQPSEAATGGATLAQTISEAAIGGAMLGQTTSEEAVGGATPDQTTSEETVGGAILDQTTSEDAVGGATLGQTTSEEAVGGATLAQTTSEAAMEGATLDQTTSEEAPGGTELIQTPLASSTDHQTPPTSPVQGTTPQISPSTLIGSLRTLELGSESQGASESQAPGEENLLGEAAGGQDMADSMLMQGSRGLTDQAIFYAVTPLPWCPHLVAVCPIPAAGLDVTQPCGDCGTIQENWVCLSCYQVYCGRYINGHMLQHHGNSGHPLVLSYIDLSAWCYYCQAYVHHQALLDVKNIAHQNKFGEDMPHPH

T1 sequence (Q13547 whole entry): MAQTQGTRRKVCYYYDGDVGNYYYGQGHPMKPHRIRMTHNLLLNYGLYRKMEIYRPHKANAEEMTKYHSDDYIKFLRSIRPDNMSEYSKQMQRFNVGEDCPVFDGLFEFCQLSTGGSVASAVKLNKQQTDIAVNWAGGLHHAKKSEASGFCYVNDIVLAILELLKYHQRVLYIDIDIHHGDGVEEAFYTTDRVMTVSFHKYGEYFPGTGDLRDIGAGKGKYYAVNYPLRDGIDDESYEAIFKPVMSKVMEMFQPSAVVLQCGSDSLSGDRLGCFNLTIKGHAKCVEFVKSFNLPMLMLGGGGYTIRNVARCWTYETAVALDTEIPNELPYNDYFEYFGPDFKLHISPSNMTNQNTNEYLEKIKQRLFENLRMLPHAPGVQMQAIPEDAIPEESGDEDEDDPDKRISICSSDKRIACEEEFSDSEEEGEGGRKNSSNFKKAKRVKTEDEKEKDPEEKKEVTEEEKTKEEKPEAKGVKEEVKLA

Row | Compound | change of acetylated histone H3 (acetylated histone H3) | cleavages of Caspase-3 and PARP (Caspase-3 and PARP) | effect on HDAC1 (HDAC1) | DC50 (HDAC6; read-out: DC50 (Part 2)) [nM] | Dmax (HDAC6; MM1.S, read-out: Dmax (Part 2)) [%]
1 | CCCCN(Cc1ccc(C(=O)NO)cc1)C(=O)Nc1ccc(OCCCCCn2cc(CNc3cccc4c3C(=O)N(C3CCC(=O)NC3=O)C4=O)nn2)cc1 (centres unmarked) [Compound 12d, 4-((1-butyl-3-(4-((5-(4-(((2-(2,6-dioxopiperidin-3-yl)-1,3-dioxoisoindolin-4-yl)amino)methyl)-1H-1,2,3-triazol-1-yl)pentyl)oxy)phenyl)ureido)methyl)-N-hydroxybenzamide] | No increase | dose-dependent | not affected |  | 
2 | CCCCN(Cc1ccc(C(=O)NO)cc1)C(=O)Nc1ccc(OCCCCCn2cc(CNc3cccc4c3C(=O)N(C3CCC(=O)NC3=O)C4=O)nn2)cc1 (centres unmarked) [Compound 2] |  |  |  | 2.2 | 85.6
